Results as given in the NIST ThermoML archive (doi:10.1016/j.jct.2011.01.010).
± gives the expanded uncertainty stated by the source.

Experiment: osmotic coefficient (dimensionless); mn = molality of the nth substance listed, in mol/kg
Settings: 323.15 K, Liquid, vapor pressure osmometry

With `CCCCO` [butan-1-ol] + COS(=O)(=O)[O-].Cc1ccc[n+](C)c1 the osmotic coefficient (m1 = 0.0259) was 0.824 ± 0.014, the osmotic coefficient (m1 = 0.0466) was 0.746 ± 0.015 and the osmotic coefficient (m1 = 0.1056) was 0.668 ± 0.017. The osmotic coefficient (m1 = 0.2078) was 0.601 ± 0.019, the osmotic coefficient (m1 = 0.3112) was 0.528 ± 0.021 and the osmotic coefficient (m1 = 0.4005) was 0.501 ± 0.021. The osmotic coefficient (m1 = 0.5132) was 0.469 ± 0.022, the osmotic coefficient (m1 = 0.9858) was 0.425 ± 0.024 and the osmotic coefficient (m1 = 1.282) was 0.406 ± 0.024. It also gave an osmotic coefficient (m1 = 1.685) of 0.394 ± 0.025, an osmotic coefficient (m1 = 2.078) of 0.387 ± 0.025 and an osmotic coefficient (m1 = 2.497) of 0.375 ± 0.025. The osmotic coefficient (m1 = 2.911) was 0.368 ± 0.025.

`CCC(C)O` (centres undefined) [butan-2-ol] + COS(=O)(=O)[O-].Cc1ccc[n+](C)c1 showed an osmotic coefficient (m1 = 0.0458) of 0.818 ± 0.014, an osmotic coefficient (m1 = 0.0728) of 0.729 ± 0.016 and an osmotic coefficient (m1 = 0.0933) of 0.696 ± 0.016. The osmotic coefficient (m1 = 0.2019) was 0.605 ± 0.018, the osmotic coefficient (m1 = 0.3113) was 0.547 ± 0.02 and the osmotic coefficient (m1 = 0.3991) was 0.512 ± 0.021. It also gave an osmotic coefficient (m1 = 0.4981) of 0.474 ± 0.022, an osmotic coefficient (m1 = 0.6846) of 0.441 ± 0.023 and an osmotic coefficient (m1 = 0.9815) of 0.408 ± 0.024. It also gave an osmotic coefficient (m1 = 1.285) of 0.383 ± 0.025, an osmotic coefficient (m1 = 1.687) of 0.361 ± 0.026 and an osmotic coefficient (m1 = 2.105) of 0.345 ± 0.026. For the same compound, the osmotic coefficient (m1 = 2.501) was 0.333 ± 0.026, the osmotic coefficient (m1 = 2.914) was 0.327 ± 0.027 and the osmotic coefficient (m1 = 3.291) was 0.32 ± 0.027.

`CCCCCO` [pentan-1-ol] + COS(=O)(=O)[O-].Cc1ccc[n+](C)c1 gave an osmotic coefficient (m1 = 0.0303) of 0.77 ± 0.015, an osmotic coefficient (m1 = 0.0543) of 0.677 ± 0.017 and an osmotic coefficient (m1 = 0.0875) of 0.618 ± 0.018. The osmotic coefficient (m1 = 0.1103) was 0.584 ± 0.019, the osmotic coefficient (m1 = 0.2153) was 0.505 ± 0.021 and the osmotic coefficient (m1 = 0.3078) was 0.464 ± 0.022. For the same compound, the osmotic coefficient (m1 = 0.412) was 0.425 ± 0.024, the osmotic coefficient (m1 = 0.5092) was 0.401 ± 0.024 and the osmotic coefficient (m1 = 0.8077) was 0.372 ± 0.025. The osmotic coefficient (m1 = 1.106) was 0.352 ± 0.026, the osmotic coefficient (m1 = 1.71) was 0.33 ± 0.027 and the osmotic coefficient (m1 = 2.229) was 0.315 ± 0.027. It also gave an osmotic coefficient (m1 = 2.726) of 0.308 ± 0.027 and an osmotic coefficient (m1 = 3.198) of 0.3 ± 0.028.

With `CCCO` [propan-1-ol] + COS(=O)(=O)[O-].Cc1ccc[n+](C)c1 the osmotic coefficient (m1 = 0.0785) was 0.885 ± 0.013, the osmotic coefficient (m1 = 0.0971) was 0.803 ± 0.015 and the osmotic coefficient (m1 = 0.2088) was 0.711 ± 0.016. It also gave an osmotic coefficient (m1 = 0.3089) of 0.671 ± 0.017, an osmotic coefficient (m1 = 0.4144) of 0.658 ± 0.017 and an osmotic coefficient (m1 = 0.5126) of 0.642 ± 0.017. It also gave an osmotic coefficient (m1 = 0.8126) of 0.609 ± 0.018, an osmotic coefficient (m1 = 1.104) of 0.576 ± 0.019 and an osmotic coefficient (m1 = 1.401) of 0.548 ± 0.02. It also gave an osmotic coefficient (m1 = 1.691) of 0.533 ± 0.02, an osmotic coefficient (m1 = 2.219) of 0.508 ± 0.021 and an osmotic coefficient (m1 = 2.721) of 0.494 ± 0.022. For the same compound, the osmotic coefficient (m1 = 3.211) was 0.478 ± 0.022.

`CC(C)O` [propan-2-ol] + COS(=O)(=O)[O-].Cc1ccc[n+](C)c1 showed an osmotic coefficient (m1 = 0.072) of 0.969 ± 0.012, an osmotic coefficient (m1 = 0.1185) of 0.873 ± 0.013 and an osmotic coefficient (m1 = 0.2149) of 0.767 ± 0.015. For the same compound, the osmotic coefficient (m1 = 0.3087) was 0.699 ± 0.016, the osmotic coefficient (m1 = 0.408) was 0.654 ± 0.017 and the osmotic coefficient (m1 = 0.5005) was 0.628 ± 0.018. The osmotic coefficient (m1 = 0.7082) was 0.57 ± 0.019, the osmotic coefficient (m1 = 1.013) was 0.532 ± 0.02 and the osmotic coefficient (m1 = 1.296) was 0.51 ± 0.021. For the same compound, the osmotic coefficient (m1 = 1.72) was 0.49 ± 0.022, the osmotic coefficient (m1 = 2.095) was 0.468 ± 0.022 and the osmotic coefficient (m1 = 2.494) was 0.46 ± 0.023. For the same compound, the osmotic coefficient (m1 = 2.956) was 0.436 ± 0.023 and the osmotic coefficient (m1 = 3.326) was 0.419 ± 0.024.
